Test results taken from the NIST ThermoML archive (doi:10.1021/acs.jced.6b00273).

Test: mn = molality of the nth substance listed, in mol/kg
Conditions: 101.33 kPa, Liquid; for viscosity: Capillary tube (Ostwald / Ubbelohde) method; for mass density: Vibrating tube method

Cn1cnc2c1c(=O)[nH]c(=O)n2C [1H-purine-2,6-dione, 3,7-dihydro-3,7-dimethyl-] + O
Conditions	mass density, 288.15 K [kg/m3]	mass density, 298.15 K [kg/m3]	mass density, 308.15 K [kg/m3]	mass density, 318.15 K [kg/m3]	viscosity, 288.15 K [mPa·s]	viscosity, 298.15 K [mPa·s]	viscosity, 308.15 K [mPa·s]	viscosity, 318.15 K [mPa·s]
m1 = 0.00051	999.157	997.073	994.088	990.268	1.138	0.891	0.72	0.597
m1 = 0.0007	999.167	997.083	994.097	990.277	1.139	0.891	0.72	0.597
m1 = 0.0009	999.177	997.093	994.107	990.287	1.139	0.891	0.72	0.597
m1 = 0.00098	999.182	997.097	994.111	990.291	1.139	0.891	0.72	0.597
m1 = 0.00123	999.195	997.11	994.123	990.303	1.139	0.891	0.72	0.597
m1 = 0.00147	–	–	–	–	1.139	0.891	0.72	0.597
m1 = 0.00148	999.209	997.123	994.135	990.314	–	–	–	–
m1 = 0.00182	–	–	–	–	1.139	0.891	0.72	0.597
m1 = 0.00183	999.228	997.141	994.152	990.331	–	–	–	–
m1 = 0.00212	–	–	–	–	1.139	0.891	0.72	0.597
m1 = 0.00213	999.244	997.156	994.167	990.346	–	–	–	–

Cn1c(=O)c2[nH]cnc2n(C)c1=O [3,7-dihydro-1,3-dimethyl-1H-purine-2,6-dione] + O
Conditions	mass density, 288.15 K [kg/m3]	mass density, 298.15 K [kg/m3]	mass density, 308.15 K [kg/m3]	mass density, 318.15 K [kg/m3]	viscosity, 288.15 K [mPa·s]	viscosity, 298.15 K [mPa·s]	viscosity, 308.15 K [mPa·s]	viscosity, 318.15 K [mPa·s]
m1 = 0.00208	999.241	997.153	994.165	990.343	–	–	–	–
m1 = 0.00213	–	–	–	–	1.139	0.891	0.719	0.597
m1 = 0.00284	–	–	–	–	1.139	0.892	0.72	0.597
m1 = 0.00285	999.283	997.192	994.204	990.379	–	–	–	–
m1 = 0.00378	999.333	997.239	994.25	990.423	–	–	–	–
m1 = 0.00394	–	–	–	–	1.14	0.892	0.72	0.598
m1 = 0.00479	999.388	997.291	994.3	990.472	–	–	–	–
m1 = 0.00519	–	–	–	–	1.14	0.892	0.721	0.598
m1 = 0.00578	999.443	997.341	994.35	990.519	–	–	–	–
m1 = 0.00617	–	–	–	–	1.141	0.893	0.722	0.599
m1 = 0.00689	–	–	–	–	1.141	0.893	0.722	0.599
m1 = 0.00699	999.509	997.404	994.41	990.578	–	–	–	–
m1 = 0.00776	999.551	997.443	994.448	990.614	–	–	–	–
m1 = 0.00819	–	–	–	–	1.142	0.894	0.723	0.599
m1 = 0.00921	–	–	–	–	1.142	0.895	0.723	0.6
m1 = 0.00934	999.638	997.526	994.528	990.691	–	–	–	–
m1 = 0.00986	999.667	997.554	994.554	990.716	–	–	–	–

Cn1c(=O)c2c(ncn2C)n(C)c1=O [caffeine] + O
Conditions	mass density, 288.15 K [kg/m3]	mass density, 298.15 K [kg/m3]	mass density, 308.15 K [kg/m3]	mass density, 318.15 K [kg/m3]	viscosity, 288.15 K [mPa·s]	viscosity, 298.15 K [mPa·s]	viscosity, 308.15 K [mPa·s]	viscosity, 318.15 K [mPa·s]
m1 = 0.00508	–	–	–	–	1.14	0.895	0.723	0.599
m1 = 0.0051	999.404	997.304	994.303	990.464	–	–	–	–
m1 = 0.00693	–	–	–	–	1.142	0.896	0.724	0.6
m1 = 0.00695	999.505	997.399	994.39	990.545	–	–	–	–
m1 = 0.009	–	–	–	–	1.144	0.896	0.724	0.601
m1 = 0.00902	999.619	997.504	994.488	990.637	–	–	–	–
m1 = 0.01986	–	–	–	–	1.147	0.9	0.728	0.606
m1 = 0.01993	1000.22	998.06	995.013	991.121	–	–	–	–
m1 = 0.02978	–	–	–	–	1.152	0.905	0.732	0.609
m1 = 0.02992	1000.77	998.576	995.497	991.571	–	–	–	–
m1 = 0.03531	1001.07	998.853	995.759	991.812	–	–	–	–
m1 = 0.03533	–	–	–	–	1.154	0.907	0.735	0.611
m1 = 0.03983	–	–	–	–	1.156	0.91	0.737	0.613
m1 = 0.04008	1001.34	999.101	996.001	992.025	–	–	–	–
m1 = 0.04953	–	–	–	–	1.162	0.914	0.741	0.617
m1 = 0.04992	1001.89	999.619	996.484	992.483	–	–	–	–

[Cl-].[Na+] [sodium chloride] + O
Conditions	mass density, m1 = 0.1 [kg/m3]	mass density, m1 = 0.25 [kg/m3]	mass density, m1 = 0.5 [kg/m3]	mass density, m1 = 0.75 [kg/m3]	mass density, m1 = 1 [kg/m3]	viscosity, m1 = 0.1 [mPa·s]	viscosity, m1 = 0.25 [mPa·s]	viscosity, m1 = 0.5 [mPa·s]	viscosity, m1 = 0.75 [mPa·s]	viscosity, m1 = 1 [mPa·s]
288.15 K	1003.33	1009.78	–	1029.45	1039.16	1.15	1.16	1.178	1.214	1.254
298.15 K	1001.12	1007.29	–	1026.12	1036.18	0.901	0.91	0.932	0.959	0.991
308.15 K	998.046	1003.48	–	1023.12	1032.47	0.728	0.74	0.756	0.78	0.812
318.15 K	994.175	999.875	1009.78	1018.94	1028.31	0.605	0.61	0.63	0.65	0.676
